Results as given in US20110060012A1, “4-[3-(ARYLOXY)BENZYLIDENE]-3-METHYL PIPERIDINE 5-MEMBERED ARYL CARBOXAMIDE COMPOUNDS USEFUL AS FAAH INHIBITORS” (Pfizer Inc., priority 2008, published 2011).

Molecular target: T1, Human FAAH (Homo sapiens, UniProt O00519)
T1 construct: made in house
T1 sequence (O00519 1-579): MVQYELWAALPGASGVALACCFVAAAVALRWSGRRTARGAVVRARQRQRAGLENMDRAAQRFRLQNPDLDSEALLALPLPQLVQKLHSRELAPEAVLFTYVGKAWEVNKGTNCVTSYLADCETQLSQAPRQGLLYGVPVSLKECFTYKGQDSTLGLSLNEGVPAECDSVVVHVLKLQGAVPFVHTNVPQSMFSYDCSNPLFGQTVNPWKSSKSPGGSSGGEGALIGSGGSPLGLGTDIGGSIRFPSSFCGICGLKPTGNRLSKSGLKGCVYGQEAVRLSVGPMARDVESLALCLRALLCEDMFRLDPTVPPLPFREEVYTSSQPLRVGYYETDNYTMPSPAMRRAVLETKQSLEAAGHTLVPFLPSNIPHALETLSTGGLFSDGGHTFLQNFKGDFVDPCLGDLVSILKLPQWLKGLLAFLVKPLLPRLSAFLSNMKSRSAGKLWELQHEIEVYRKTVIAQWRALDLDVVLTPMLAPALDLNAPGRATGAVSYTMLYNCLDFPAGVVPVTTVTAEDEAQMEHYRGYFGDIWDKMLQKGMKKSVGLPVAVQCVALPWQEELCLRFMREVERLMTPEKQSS
Assay: FAAH enzyme assay (glutamate dehydrogenase-coupled, oleamide substrate)
Type: biochemical
Details: human FAAH 1-4 nM, pH 7.4, 30° C., absorbance at 340 nm over 90 min, read-out: hFAAH Kinact/Ki
Protocol: A FAAH enzyme assay may be carried out as described in W02006/085196 in 384-well clear polystyrene plates in a total volume of 50 μl per well. All percents are by volume. To each well was placed the reaction mixture (40 μl) containing 1-4 nM FAAH, 50 mM NaPi, pH 7.4, 3 mM α-ketoglutarate, 0.15 mM NADH, 7.5 U/ml glutamate dehydrogenase, 2 mM ADP, 1 mM EDTA, and 0.1% Triton X-100 (The concentration shown for each component is the final concentration in the assay). To this mixture was added 5 μl of a compound of Examples 1 to 20 at various concentrations prepared in 50% DMSO (or 5 μl 50% DMSO for controls). This was immediately followed by the addition of 5 μl oleamide (500 μM) dissolved in 75% EtOH/25% DMSO and the reaction mixture is mixed for 1.5 min. The final concentrations of DMSO and EtOH in the assay were each 7.5%. The reactions was then incubated at 30° C. and the absorbance at 340 nm was collected over a period of 90 min with readings taken in 30-second intervals using SpectraMax Plus^384 Microplate Spectrophotometer (Molecular Devices, Sunnyvale, Calif.). Human FAAH used in the assay was prepared as described in the patent application WO 2006/067613. The purity of the enzyme used was greater than 98% based on an analysis by SDS-polyacrylamide gel electrophoresis followed by Coomassie Blue staining.
Initial velocity data (V) is obtained from the slopes of the initial progressive curves. They are plotted as a function of substrate concentration and fit to the Michaelis-Menten equation (1) using Prism (GraphPad Software, Inc., San Diego, Calif.) software to obtain Km and Vmax values.
To obtain potencies of irreversible inhibitors, progressive curves consistent with first order inhibition kinetics (two-step irreversible inhibition mechanism) are fit to equation (2) by nonlinear least squares regressions to determine kobs values at each inhibitor concentration, where [P]t is the absorbance at time t, V0 is a constant related to the steady state rate of the uninhibited reaction, and kobs is the first order rate constant for enzyme inactivation. […]

kinact/KI [M⁻¹ s⁻¹] | Compound
2850 | Cc1oncc1NC(=O)N1CC/C(=C\c2cccc(Oc3ccc(C(F)(F)F)cn3)c2)C(C)C1 (single isomer, unassigned) [Example 2, (4E)-3-methyl-N-(5-methylisoxazol-4-yl)-4-(3-{[5-(trifluoromethyl)pyridin-2-yl]oxy}benzylidene)piperidine-1-carboxamide]
4350 | CC1CN(C(=O)Nc2cnoc2)CC/C1=C\c1cccc(Oc2ccc(C(F)(F)F)cn2)c1 (single isomer, unassigned) [Example 3, (4E)-N-isoxazol-4-yl-3-methyl-4-(3-{[5-(trifluoromethyl)pyridin-2-yl]oxy}benzylidene)piperidine-1-carboxamide]
624 | Cc1noc(NC(=O)N2CC/C(=C\c3cccc(Oc4ccc(C(F)(F)F)cn4)c3)C(C)C2)c1C (single isomer, unassigned) [Example 1, (4E)-N-(3,4-dimethylisoxazol-5-yl)-3-methyl-4-(3-{[5-(trifluoromethyl)pyridin-2-yl]oxy}benzylidene)piperidine-1-carboxamide]
